{"source": "patent US9408859B2", "about": "“Pharmaceutical compositions useful for preventing and treating cancer” (Mitotech SA, priority 2007, dated 2016)", "key": {"[1]": {"system": "Lung Lewis's carcinoma", "assay": "SkQ1 combined with doxorubicin on growth of lung Lewis's carcinoma", "type": "in vivo, mouse", "conditions": "regime per group", "method": "For development of oncological diseases joint therapy that combines SkQ1 and chemotherapy, a study on SkQ1 influence on single doxorubicin injection efficiency was performed (one of the mechanisms of the preparation is activation of oxidative processes in normal and cancerous cells). SkQ1 was introduced before, simultaneously, or after introduction of doxorubicin in maximum dose of 500 nM/kg (in order to block oxidative mechanism of doxorubicin influence).\nDoxorubicin was applied before, after, and during the course of SkQ1."}, "[2]": {"system": "human rhabdomyosarcoma cell line (RD)", "assay": "Apoptosis in RD cells (Hoechst staining, propidium iodide flow cytometry)", "type": "cell-based", "conditions": "for Induction of apoptosis: 1 mM NAC or 100 mM Trolox for 24 hours", "method": "To determine the viability of the cells, chromatine condensation and fragmentation was analyzed in similarly-treated cells (20 nM SkQ or 1 mM NAC or 100 mM Trolox for 24 hours and 1 μm FCCP one hour before SkQ1 where indicated) after staining with Hoechst 3342 (GenScript, Cat. No. L00309, performed according to manufacture manual http://www.genscript.com/tech_guide/TM0361.pdf). The cells were then examined using an Axiovert fluorescent microscope equipped with objectives 20× (dry) and 100× (oil immersion Neofluar) (Carl Zeiss).\nFurther evidence of apoptosis was obtained by analysis of DNA content in the cellular population using flow cytometry. Cells were incubated with 0.05% ethanol was added (control) or with 20 nM SkQ1 for 24 hours, and then fixed and stained with propidium iodide (5 μM). They were then analyzed by flow cytometry using a FC-500 FACS (Beckman Coulter, Inc., Brea, Calif.)."}, "[3]": {"system": "tumor xenografts (tumors of epithelial cancers)", "conditions": "as stated in WO2006005759, cited from earlier work"}, "[4]": {"system": "human rhabdomyosarcoma cell line (RD)", "assay": "RD cell morphology, attachment and multinuclear cells", "type": "cell-based", "conditions": "20 nM, pretreatment for 24 hours", "method": "In the following experiment, a human rhabdomyosarcoma cell line (RD) purchased from the ATCC (#CCL-136) was used. These cells were isolated from a […] 7 years ago and are widely accepted as a model for studies of rhabdomyosarcoma in vitro and in vivo.\nThe cells were grown in Dulbecco's modified Eagle's medium (DMEM, Gibco®, Invitrogen, Carlsbad, Calif.) supplemented with 10% FBS. The cells were treated with 20 nM SkQ (SkQ1, SkQR1, SkQB1, or SkQBP1), or with a non-targeted antioxidant (1 mM NAC, or 100 μM Trolox) 24 to 72 hours before evaluation. In some experiments 1 μM of the protonophorous uncoupler FCCP was added 1 hour before the addition of SkQ1 to depolarize the mitochondrial membrane, and thus to prevent the electrophoretic accumulation of SkQ in the mitochondrial interior. The cells were then stained with rabbit polyclonal antibodies against actin (1:1000) (Sigma-Aldrich Corp., Baleras, Russia) and monoclonal antibody DM1A against tubulin (1:1000) (Sigma-Aldrich Corp.), and their morphology examined using an Axiovert fluorescent microscope equipped with objectives 20× (dry) and 100× (oil immersion Neofluar) (Carl Zeiss, Germany)."}}, "note": "Peptide text beside a SMILES is read from it. * marks the point of attachment. Cbz = O=C(OCc1ccccc1)*; CH2F = FC*", "data": [{"compound": "COc1cccc2c1C(=O)c1c(O)c3c(c(O)c1C2=O)C[C@@](O)(C(=O)CO)C[C@@H]3O[C@H]1C[C@H](N)[C@H](O)[C@H](C)O1", "note": "[DOX, doxorubicin, reference compound]", "values": [{"measurement": "TGS %, by tumor volume", "setting": "[1]; Day 10", "result": 26, "unit": "%"}, {"measurement": "TGS %, by tumor volume", "setting": "[1]; Day 14", "result": 38, "unit": "%"}, {"measurement": "TGS %, by tumor volume", "setting": "[1]; Day 14, listed as doxorubicin", "result": 36, "unit": "%"}, {"measurement": "TGS %, by tumor volume", "setting": "[1]; Day 17", "result": 35, "unit": "%"}, {"measurement": "TGS %, by tumor volume", "setting": "[1]; Day 21", "result": 30, "unit": "%"}]}, {"compound": "N#CC(C#N)=NNc1ccc(OC(F)(F)F)cc1", "note": "[FCCP]", "values": [{"measurement": "Effect on pro-apoptotic action of SkQs", "setting": "[2]; 1 μm FCCP one hour before SkQ1", "result": "prevented their pro-apoptotic action"}]}, {"compound": "COC1=C(OC)C(=O)C(CCCCCCCCCC[P+](c2ccccc2)(c2ccccc2)c2ccccc2)=C(C)C1=O", "note": "[MitoQ]", "values": [{"measurement": "necrosis", "setting": "[3]", "result": "increased necrosis"}, {"measurement": "vascularization of the tumor xenografts", "setting": "[3]", "result": "decreased vascularization"}, {"measurement": "tumor size", "setting": "[3]; no experimental data shown", "result": "tumor size reduction"}]}, {"compound": "CC(=O)N[C@@H](CS)C(=O)O", "note": "[NAC]", "values": [{"measurement": "Induction of apoptosis", "setting": "[2]", "result": "induced apoptosis in RD cells but only at much higher concentrations"}]}, {"compound": "COc1ccc2c(CC(=O)OCCCCCCCC3=CC(=O)C(C)=C(C)C3=O)c3[n+](cc2c1OC)CCc1cc2c(cc1-3)OCO2", "note": "[SkQB1]", "values": [{"measurement": "Cell morphology", "setting": "[4]", "result": "induced the formation of elongated cells"}]}, {"compound": "COc1cc2c(cc1OC)-c1c(CC(=O)OCCCCCCCC3=CC(=O)C(C)=C(C)C3=O)c3ccc(OC)c(OC)c3c[n+]1CC2", "note": "[SkQBP1]", "values": [{"measurement": "Cell morphology", "setting": "[4]", "result": "induced the formation of elongated cells"}]}, {"compound": "Cc1c(C)c2c(c(C)c1O)CCC(C)(C(=O)O)O2", "note": "(centres unmarked) [Trolox]", "values": [{"measurement": "Induction of apoptosis", "setting": "[2]", "result": "induced apoptosis in RD cells but only at much higher concentrations"}]}, {"compound": "COC(=O)C[C@H](NC(=O)[C@H](C)NC(=O)[C@@H](NC(=O)OCc1ccccc1)C(C)C)C(=O)CF", "note": "[zVADfmk] (Cbz-Val-Ala-Asp(OMe)-CH2F)", "values": [{"measurement": "Effect on cell death caused by SkQs", "setting": "[2]; pan-caspase inhibitor", "result": "Cell death was prevented"}]}]}
